The values that follow come from US8008433B2, “Methods for preventing or treating bone disorders” (Metabolic Pharmaceutical Limited, priority 2004, dated 2011).

In general, solubility refers to the dissolved amount per volume that the medium holds. A low value points to a poorly soluble substance.

One series relates to C57B1/6J (Ob/Ob) mouse. Particulars: from AU 693478; cited from earlier work.
Series [1] deals with aged rat model for post-menopausal osteoporosis. Kind of series: Vertebral compression of L5 (trabecular bone). Format: in vivo, Sprague-Dawley rats (Rattus Norvegicus). Particulars: slow release pellet 0.01 mg/day, 12 weeks. On the procedure:
Ninety-six aged Sprague-Dawley rats were randomly assigned to one of eight groups. The first two groups were sham operated. Group 1 was kept as a Sham control and Group 2 was treated with 2.5 mg/kg/day of recombinant human GH (rhGH) (BresaGen). The remaining six groups arrived from Harlan, ovariectomized (OVX). This surgery was performed approximately 8 days before the commencement of treatment. Group 3 was left as a control for the OVX model. Group 4 was given a treatment of 2.5 mg/kg/day of rhGH. Group 5 was treated with a low dose of AOD peptide (LAOD) 0.75 mg/kg/day and Group 6 was treated with a high dose of AOD peptide (HAOD) 2.0 mg/kg/day. […]
Statistical analysis was performed using statistical software, SPSS (version 11.0). Comparisons involving two groups were analyzed by independent student's t-test. Multiple comparisons were analyzed by one-way ANOVA analysis using the pairwise comparison Protected Fisher's Least Significant Difference (LSD) post hoc test. […]
Digital images were taken and image analysis software (ImageJ 1.28u, NIH) was used to determine the height and cross-sectional area of the vertebral body. […] While preloading the samples, the distance between the platens was measured using digital calipers. The gauge length was then determined by subtracting the height of the jig with the distance between the platens. […]

Where a SMILES comes first, the peptide text is derived from it. Bridges are numbered along the chain shown (N, C = ends).

Consider “hGH 177-191: synthetic peptide corresponding to amino acid residues 177-191 of the human growth hormone sequence (LRIVQCRSVEGSCGF; UniProt P01241 203-217, looked up, fragment)”, for which, in the series with C57B1/6J (Ob/Ob) mouse, the adipose tissue mass result is given as “reduce” and the body weight gain entry is on record as “reduce”.
`CC[C@H](C)[C@H](NC(=O)[C@H](CCCNC(=N)N)NC(=O)[C@H](CC(C)C)NC(=O)[C@@H](N)Cc1ccc(O)cc1)C(=O)N[C@H](C(=O)N[C@@H](CCC(N)=O)C(=O)N[C@H]1CSSC[C@@H](C(=O)NCC(=O)N[C@@H](Cc2ccccc2)C(=O)O)NC(=O)[C@H](CO)NC(=O)CNC(=O)[C@H](CCC(=O)O)NC(=O)[C@H](C(C)C)NC(=O)[C@H](CO)NC(=O)[C@H](CCCNC(=N)N)NC1=O)C(C)C` [AOD, Tyr Leu Arg Ile Val Gln Cys Arg Ser Val Glu Gly Ser Cys Gly Phe] (H-YLRIVQCRSVEGSCGF-OH; disulfide 7-14; N-terminus and C-terminus assumed) registered a solubility greater than 1000 µg/mL.
Regarding 17B-estradiol [Estrogen], in series [1], the “strength and stiffness (vertebral compression L5), decrease caused by OVX” value was “did not prevent a decrease”; the “stress and elastic modulus values (vertebral compression L5) compared to OVX” value was “higher”.
